# Key:
# [1] = test system: men and women with overactive bladder; assay: 40-week extension study (52 weeks), efficacy; type: in vivo, human; settings: for UUI Episodes 75% Responders at Week 52 / UUI Episodes 100% Responders at Week 52 / Urgency Episodes 50% Responders at Week 52: multiple imputation
# From the text: All CFB calculations used the parent study Baseline value.
# [2] = Phase 3 study (75 mg), adverse events; type: in vivo, human
# Experimental: Study assessments of safety included adverse events, physical examinations, vital signs (and weight), and clinical laboratory tests
# An adverse event is any untoward medical occurrence in a patient or clinical investigation patient, temporally associated with the use of a medicinal product, whether or not considered related to the medicinal product.
# Adverse Events of Clinical Interest for this study included:
# Safety analyses were conducted using the SAF and summarized by treatment group as treated. The treatment-emergent period is defined as the period of time from the first dose date of the double blinded Study Treatment through 28 days after the last dose of Study Treatment, or the date of initiation of another investigational agent or surgical intervention or rollover to the extension study, whichever occurs first. Safety was assessed through summaries of adverse events, the frequency of treatment discontinuations due to adverse events, and clinical laboratory evaluations.
# [3] = 40-Week treatment group, Full Analysis Set Extension
# [4] = 52-Week treatment group, Full Analysis Set Extension
structure (smiles),measurement,setting,value
"Cc1ccc(O)c([C@H](CCN(C(C)C)C(C)C)c2ccccc2)c1 [Tolterodine ER, tolterodine, reference compound]","Micturitions, Change from Baseline at Week 52, Mean",[1]; 40-Week arm,−2.6
same,"UUI Episodes, Change from Baseline at Week 52, Mean",[1]; 40-Week arm,−1.5
same,"UUI Episodes, Week 52 Mean",[1]; 40-Week arm,1.1
same,"Urgency Episodes, Change from Baseline at Week 52, Mean",[1]; 40-Week arm,−3.5
same,"Urgency Episodes, Week 52 Mean",[1]; 40-Week arm,3.9
same,"Micturitions, Week 52 Mean","[1]; 40-Week arm, Full Analysis Set Extension",8.8
same,"Total urinary incontinence episodes, Change from Baseline Mean at Week 52",[1]; [3],−1.9
same,"Total urinary incontinence episodes, Week 52 Mean",[1]; [3],1.2
same,UUI Episodes 75% Responders at Week 52,[1]; 40-Week treatment group,54.0%
same,UUI Episodes 100% Responders at Week 52,[1]; 40-Week treatment group,37.8%
same,Urgency Episodes 50% Responders at Week 52,[1]; 40-Week treatment group,50.1%
same,"Micturitions, Change from Baseline at Week 52, Mean",[1]; 52-Week arm,−2.3
same,"UUI Episodes, Change from Baseline at Week 52, Mean",[1]; 52-Week arm,−1.7
same,"UUI Episodes, Week 52 Mean",[1]; 52-Week arm,1.4
same,"Urgency Episodes, Change from Baseline at Week 52, Mean",[1]; 52-Week arm,−3.5
same,"Urgency Episodes, Week 52 Mean",[1]; 52-Week arm,4.7
same,"Micturitions, Week 52 Mean","[1]; 52-Week arm, Full Analysis Set Extension",9.0
same,"Total urinary incontinence episodes, Change from Baseline Mean at Week 52",[1]; [4],−2.0
same,"Total urinary incontinence episodes, Week 52 Mean",[1]; [4],1.7
same,UUI Episodes 75% Responders at Week 52,[1]; 52-Week treatment group,54.4%
same,UUI Episodes 100% Responders at Week 52,[1]; 52-Week treatment group,34.2%
same,Urgency Episodes 50% Responders at Week 52,[1]; 52-Week treatment group,51.0%
same,"UUI Episodes, Change from Baseline LS Mean (SE) at Week 52","[1]; 52-Weeks arm, Full Analysis Set Extension for Incontinence",−1.7 (0.17)
same,"Micturitions, Change from Baseline LS Mean (SE) at Week 52","[1]; 52-Weeks arm, mixed model for repeated measures",−2.0 (0.26)
same,"Urgency episodes, Change from Baseline LS Mean (SE) at Week 52","[1]; 52-Weeks treatment, Full Analysis Set Extension",−3.2 (0.37)
same,"Total urinary incontinence episodes, Change from Baseline LS Mean (SE) at Week 52","[1]; 52-Weeks treatment, Full Analysis Set Extension for Incontinence",−1.9 (0.19)
same,"% Responders, 50% Reduction in Total Inc at Week 52","[1]; 52-week treatment, Table 97",62%
same,"% Responders, 50% Reduction in UE at Week 52","[1]; 52-week treatment, Table 97",51%
same,"% Responders, 75% Reduction in UUI at Week 52","[1]; 52-week treatment, Table 97",54%
same,"% Responders, 100% Reduction in UUI at Week 52","[1]; 52-week treatment, Table 97",34%
same,"Micturitions, Least Squares Means CFB at Week 52","[1]; 52-week treatment, Table 97",−2.0
same,"Total Incontinence Episodes, Least Squares Means CFB at Week 52","[1]; 52-week treatment, Table 97",−1.9
same,"UUI Episodes, Least Squares Means CFB at Week 52","[1]; 52-week treatment, Table 97",−1.7
same,"Urgency Episodes (UE), Least Squares Means CFB at Week 52","[1]; 52-week treatment, Table 97",−3.2
same,"Volume Voided, mean change from baseline at Week 52","[1]; 52-week treatment, Table 97",9 mL
same,AE: ALT increase,[2]; 12-week study,1 (0.2) n (%)
same,AE: AST increase,[2]; 12-week study,1 (0.2) n (%)
same,AE: Atrial fibrillation,[2]; 12-week study,1 (0.2) n (%)
same,AE: Bilirubin increased,[2]; 12-week study,1 (0.2) n (%)
same,AE: Blood creatinine increased,[2]; 12-week study,1 (0.2) n (%)
same,AE: Blood pressure diastolic increased,[2]; 12-week study,1 (0.2%) n (%)
same,AE: Blood pressure increased,[2]; 12-week study,8 (1.9) n (%)
same,AE: Cardiac failure congestive,[2]; 12-week study,0 n (%)
same,AE: Cerebrovascular accident,[2]; 12-week study,1 (0.2) n (%)
same,AE: Chest discomfort,[2]; 12-week study,0 n (%)
same,AE: Chest pain,[2]; 12-week study,0 n (%)
same,AE: Chronic kidney disease,[2]; 12-week study,0 n (%)
same,AE: Constipation,[2]; 12-week study,6 (1.4) n (%)
same,AE: Cystitis,[2]; 12-week study,1 (0.2) n (%)
same,AE: Diarrhea,[2]; 12-week study,9 (2.1) n (%)
same,AE: Dizziness,[2]; 12-week study,4 (0.9) n (%)
same,AE: Drug hypersensitivity,[2]; 12-week study,0 n (%)
same,AE: Dry mouth,[2]; 12-week study,28 (6.5) n (%)
same,AE: Dysuria,[2]; 12-week study,0 n (%)
same,AE: Escherichia urinary-tract infection,[2]; 12-week study,1 (0.2%) n (%)
same,AE: Fatigue,[2]; 12-week study,6 (1.4) n (%)
same,AE: Glomerular filtration rate decreased,[2]; 12-week study,2 (0.5) n (%)
same,AE: Headache,[2]; 12-week study,11 (2.6) n (%)
same,AE: Hepatic enzyme increased,[2]; 12-week study,1 (0.2) n (%)
same,AE: Hot flush,[2]; 12-week study,1 (0.2) n (%)
same,AE: Hyperglycemia,[2]; 12-week study,2 (0.5) n (%)
same,AE: Hypertension,[2]; 12-week study,11 (2.6) n (%)
same,AE: Hypotension,[2]; 12-week study,1 (0.2) n (%)
same,AE: Nasopharyngitis,[2]; 12-week study,11 (2.6) n (%)
same,AE: Nausea,[2]; 12-week study,5 (1.2) n (%)
same,AE: Pollakiuria,[2]; 12-week study,0 n (%)
same,AE: Positional vertigo,[2]; 12-week study,1 (0.2) n (%)
same,AE: Residual urine volume increased,[2]; 12-week study,6 (1.4) n (%)
same,AE: Somnolence,[2]; 12-week study,2 (0.5) n (%)
same,AE: Syncope,[2]; 12-week study,1 (0.2) n (%)
same,AE: Tachycardia,[2]; 12-week study,1 (0.2) n (%)
same,AE: Transaminases increased,[2]; 12-week study,0 n (%)
same,AE: Type 2 diabetes mellitus,[2]; 12-week study,0 n (%)
same,AE: Urinary retention,[2]; 12-week study,3 (0.7) n (%)
same,AE: Urinary tract infection,[2]; 12-week study,25 (5.8) n (%)
same,AE: Vertigo,[2]; 12-week study,1 (0.2) n (%)
same,AE: Back pain,[2]; patients ≥75 years,2.1%
same,AE: Diarrhea,[2]; patients ≥75 years,4.2%
same,AE: Dyspnea,[2]; patients ≥75 years,0%
same,AE: Nausea,[2]; patients ≥75 years,0%
same,AE: Rash,[2]; patients ≥75 years,0%
same,AE: Somnolence,[2]; patients ≥75 years,2.1%
same,AE: Upper respiratory tract infection,[2]; patients ≥75 years,0%
same,AE: Urinary retention,[2]; patients ≥75 years,4.2%
same,AE: Urinary tract infection,[2]; patients ≥75 years,8.3%
same,Overall AE rate,[2]; patients ≥75 years,50.0%
same,"Any AE of clinical interest, %",[2]; safety population,(8.8%)
same,"Patients with at least one treatment emergent serious AEs, %",[2]; safety population,(2.3) %
same,"SAEs resulting in death, %",[2]; safety population,(0.2) %
same,"SAEs: Hospitalization, %",[2]; safety population,(1.9) %
same,"SAEs: other serious criteria, %",[2]; safety population,(0.5) %
same,"Patients with at least one treatment emergent adverse events, %","[2]; safety population, 12-week study",(38.6) %
same,Tachycardia rate,"[2]; tolterodine ER 4 mg once daily, 12 weeks",0.2%
same,Patients with at least one Serious AE,"[2]; vibegron 75 mg or tolterodine ER 4 mg once daily, 12 weeks",2.3%

# From patent US20230027066A1 (Urovant Sciences GmbH, priority 2019, published 2023)
